{"source": "ChEMBL document CHEMBL4138146", "about": "“A Schmidt rearrangement-mediated synthesis of novel tetrahydro-benzo[1,4]diazepin-5-ones as potential anticancer and antiprotozoal agents” (Eur J Med Chem, 2017)", "type_in_all_cases": "functional", "key": {"[1]": {"test_system": "MDA-MB-468", "assay": "Growth inhibition of human MDA-MB-468 cells assessed as cell growth at 10^-6 M incubated for 48 hrs by sulforhodamine B assay relative to control", "conditions": "MDA-MB-468, 48 h, read-out: Activity"}, "[2]": {"test_system": "HL-60(TB)", "assay": "Growth inhibition of human HL-60(TB) cells assessed as cell growth at 10^-7 M incubated for 48 hrs by sulforhodamine B assay relative to control", "conditions": "HL-60, 48 h, read-out: Activity"}, "[3]": {"test_system": "DU-145", "assay": "Growth inhibition of human DU145 cells assessed as cell growth at 10^-5 M incubated for 48 hrs by sulforhodamine B assay relative to control", "conditions": "DU-145, 48 h, read-out: Activity"}, "[4]": {"test_system": "Hs-578T", "assay": "Growth inhibition of human Hs 578T cells assessed as cell growth at 10^-6 M incubated for 48 hrs by sulforhodamine B assay relative to control", "conditions": "read-out: Activity"}, "[5]": {"test_system": "CCRF-CEM", "assay": "Growth inhibition of human CCRF-CEM cells assessed as cell growth at 10^-4 M incubated for 48 hrs by sulforhodamine B assay relative to control", "conditions": "read-out: Activity"}, "[6]": {"test_system": "SF-268", "assay": "Growth inhibition of human SF268 cells assessed as cell growth at 10^-6 M incubated for 48 hrs by sulforhodamine B assay relative to control", "conditions": "SF-268, 48 h, read-out: Activity"}, "[7]": {"test_system": "HOP-62", "assay": "Growth inhibition of human HOP62 cells assessed as cell growth at 10^-7 M incubated for 48 hrs by sulforhodamine B assay relative to control", "conditions": "HOP-62, 48 h, read-out: Activity"}, "[8]": {"test_system": "SR", "assay": "Growth inhibition of human SR cells assessed as cell growth at 10^-8 M incubated for 48 hrs by sulforhodamine B assay relative to control", "conditions": "read-out: Activity"}, "[9]": {"test_system": "SR", "assay": "Growth inhibition of human SR cells assessed as cell growth at 10^-7 M incubated for 48 hrs by sulforhodamine B assay relative to control", "conditions": "read-out: Activity"}, "[10]": {"test_system": "PC-3", "assay": "Growth inhibition of human PC3 cells assessed as cell growth at 10^-8 M incubated for 48 hrs by sulforhodamine B assay relative to control", "conditions": "PC-3, 48 h, read-out: Activity"}, "[11]": {"test_system": "HCC 2998", "assay": "Growth inhibition of human HCC2998 cells assessed as cell growth at 10^-8 M incubated for 48 hrs by sulforhodamine B assay relative to control", "conditions": "HCC 2998, 48 h, read-out: Activity"}, "[12]": {"test_system": "TK-10", "assay": "Growth inhibition of human TK10 cells assessed as cell growth at 10^-7 M incubated for 48 hrs by sulforhodamine B assay relative to control", "conditions": "TK-10, 48 h, read-out: Activity"}, "[13]": {"test_system": "Malme-3M", "assay": "Growth inhibition of human MALME-3M cells assessed as cell growth at 10^-7 M incubated for 48 hrs by sulforhodamine B assay relative to control", "conditions": "read-out: Activity"}, "[14]": {"test_system": "SF-268", "assay": "Growth inhibition of human SF268 cells assessed as cell growth at 10^-8 M incubated for 48 hrs by sulforhodamine B assay relative to control", "conditions": "SF-268, 48 h, read-out: Activity"}, "[15]": {"test_system": "U-251", "assay": "Growth inhibition of human U251 cells assessed as cell growth at 10^-4 M incubated for 48 hrs by sulforhodamine B assay relative to control", "conditions": "U-251, 48 h, read-out: Activity"}, "[16]": {"test_system": "KM12", "assay": "Growth inhibition of human KM12 cells assessed as cell growth at 10^-4 M incubated for 48 hrs by sulforhodamine B assay relative to control", "conditions": "KM12, 48 h, read-out: Activity"}, "[17]": {"test_system": "SK-MEL-5", "assay": "Growth inhibition of human SK-MEL-5 cells assessed as cell growth at 10^-7 M incubated for 48 hrs by sulforhodamine B assay relative to control", "conditions": "SK-MEL-5, 48 h, read-out: Activity"}, "[18]": {"test_system": "KM12", "assay": "Growth inhibition of human KM12 cells assessed as cell growth at 10^-5 M incubated for 48 hrs by sulforhodamine B assay relative to control", "conditions": "KM12, 48 h, read-out: Activity"}, "[19]": {"test_system": "ACHN", "assay": "Growth inhibition of human ACHN cells assessed as cell growth at 10^-8 M incubated for 48 hrs by sulforhodamine B assay relative to control", "conditions": "read-out: Activity"}, "[20]": {"test_system": "NCI-H226", "assay": "Growth inhibition of human NCI-H226 cells assessed as cell growth at 10^-8 M incubated for 48 hrs by sulforhodamine B assay relative to control", "conditions": "NCI-H226, 48 h, read-out: Activity"}, "[21]": {"test_system": "U-251", "assay": "Growth inhibition of human U251 cells assessed as cell growth at 10^-8 M incubated for 48 hrs by sulforhodamine B assay relative to control", "conditions": "U-251, 48 h, read-out: Activity"}, "[22]": {"test_system": "A498", "assay": "Growth inhibition of human A498 cells assessed as cell growth at 10^-8 M incubated for 48 hrs by sulforhodamine B assay relative to control", "conditions": "A498, 48 h, read-out: Activity"}, "[23]": {"test_system": "OVCAR-5", "assay": "Growth inhibition of human OVCAR5 cells assessed as cell growth at 10^-5 M incubated for 48 hrs by sulforhodamine B assay relative to control", "conditions": "OVCAR-5, 48 h, read-out: Activity"}, "[24]": {"test_system": "RXF 393", "assay": "Growth inhibition of human RXF393 cells assessed as cell growth at 10^-5 M incubated for 48 hrs by sulforhodamine B assay relative to control", "conditions": "RXF 393, 48 h, read-out: Activity"}, "[25]": {"test_system": "CAKI-1", "assay": "Growth inhibition of human Caki1 cells assessed as cell growth at 10^-5 M incubated for 48 hrs by sulforhodamine B assay relative to control", "conditions": "CAKI-1, 48 h, read-out: Activity"}, "[26]": {"test_system": "SNB-19", "assay": "Growth inhibition of human SNB19 cells assessed as cell growth at 10^-5 M incubated for 48 hrs by sulforhodamine B assay relative to control", "conditions": "SNB-19, 48 h, read-out: Activity"}, "[27]": {"test_system": "SK-MEL-5", "assay": "Growth inhibition of human SK-MEL-5 cells assessed as cell growth at 10^-6 M incubated for 48 hrs by sulforhodamine B assay relative to control", "conditions": "SK-MEL-5, 48 h, read-out: Activity"}, "[28]": {"test_system": "DU-145", "assay": "Growth inhibition of human DU145 cells assessed as cell growth at 10^-6 M incubated for 48 hrs by sulforhodamine B assay relative to control", "conditions": "DU-145, 48 h, read-out: Activity"}, "[29]": {"test_system": "TK-10", "assay": "Growth inhibition of human TK10 cells assessed as cell growth at 10^-6 M incubated for 48 hrs by sulforhodamine B assay relative to control", "conditions": "TK-10, 48 h, read-out: Activity"}, "[30]": {"test_system": "PC-3", "assay": "Growth inhibition of human PC3 cells assessed as cell growth at 10^-4 M incubated for 48 hrs by sulforhodamine B assay relative to control", "conditions": "PC-3, 48 h, read-out: Activity"}, "[31]": {"test_system": "T47D", "assay": "Growth inhibition of human T47D cells assessed as cell growth at 10^-8 M incubated for 48 hrs by sulforhodamine B assay relative to control", "conditions": "read-out: Activity"}, "[32]": {"test_system": "LOX IMVI", "assay": "Growth inhibition of human LOXIMVI cells assessed as cell growth at 10^-5 M incubated for 48 hrs by sulforhodamine B assay relative to control", "conditions": "read-out: Activity"}, "[33]": {"test_system": "SK-MEL-2", "assay": "Growth inhibition of human SK-MEL-2 cells assessed as cell growth at 10^-4 M incubated for 48 hrs by sulforhodamine B assay relative to control", "conditions": "SK-MEL-2, 48 h, read-out: Activity"}, "[34]": {"test_system": "IGROV-1", "assay": "Growth inhibition of human IGROV1 cells assessed as cell growth at 10^-7 M incubated for 48 hrs by sulforhodamine B assay relative to control", "conditions": "IGROV-1, 48 h, read-out: Activity"}, "[35]": {"test_system": "MOLT-4", "assay": "Growth inhibition of human MOLT4 cells assessed as cell growth at 10^-6 M incubated for 48 hrs by sulforhodamine B assay relative to control", "conditions": "MOLT-4, 48 h, read-out: Activity"}}}
{"smiles": "CCCCOc1nc2ccccc2cc1C1CNC(=O)c2ccccc2N1", "note": "(stereo not given)", "values": [{"measurement": "growth at 1 µM", "setting": "[1]", "result": 66, "unit": "%"}, {"measurement": "growth at 0.1 µM", "setting": "[2]", "result": 26, "unit": "%"}, {"measurement": "growth at 10 µM", "setting": "[3]", "result": 5, "unit": "%"}, {"measurement": "growth at 1 µM", "setting": "[4]", "result": 73, "unit": "%"}, {"measurement": "growth at 100 µM", "setting": "[5]", "result": -17, "unit": "%"}, {"measurement": "growth at 1 µM", "setting": "[6]", "result": 80, "unit": "%"}, {"measurement": "growth at 0.1 µM", "setting": "[7]", "result": 98, "unit": "%"}, {"measurement": "growth at 0.01 µM", "setting": "[8]", "result": 86, "unit": "%"}, {"measurement": "growth at 0.1 µM", "setting": "[9]", "result": 64, "unit": "%"}, {"measurement": "growth at 0.01 µM", "setting": "[10]", "result": 96, "unit": "%"}, {"measurement": "growth at 0.01 µM", "setting": "[11]", "result": 99, "unit": "%"}, {"measurement": "growth at 0.1 µM", "setting": "[12]", "result": 83, "unit": "%"}, {"measurement": "growth at 0.1 µM", "setting": "[13]", "result": 92, "unit": "%"}, {"measurement": "growth at 0.01 µM", "setting": "[14]", "result": 95, "unit": "%"}, {"measurement": "growth at 100 µM", "setting": "[15]", "result": -77, "unit": "%"}, {"measurement": "growth at 100 µM", "setting": "[16]", "result": -2, "unit": "%"}, {"measurement": "growth at 0.1 µM", "setting": "[17]", "result": 100, "unit": "%"}, {"measurement": "growth at 10 µM", "setting": "[18]", "result": 17, "unit": "%"}, {"measurement": "growth at 0.01 µM", "setting": "[19]", "result": 103, "unit": "%"}, {"measurement": "growth at 0.01 µM", "setting": "[20]", "result": 97, "unit": "%"}, {"measurement": "growth at 0.01 µM", "setting": "[21]", "result": 99, "unit": "%"}, {"measurement": "growth at 0.01 µM", "setting": "[22]", "result": 82, "unit": "%"}, {"measurement": "growth at 10 µM", "setting": "[23]", "result": 38, "unit": "%"}, {"measurement": "growth at 10 µM", "setting": "[24]", "result": 5, "unit": "%"}, {"measurement": "growth at 10 µM", "setting": "[25]", "result": 25, "unit": "%"}, {"measurement": "growth at 10 µM", "setting": "[26]", "result": 38, "unit": "%"}, {"measurement": "growth at 1 µM", "setting": "[27]", "result": 73, "unit": "%"}, {"measurement": "growth at 1 µM", "setting": "[28]", "result": 95, "unit": "%"}, {"measurement": "growth at 1 µM", "setting": "[29]", "result": 92, "unit": "%"}, {"measurement": "growth at 100 µM", "setting": "[30]", "result": -63, "unit": "%"}, {"measurement": "growth at 0.01 µM", "setting": "[31]", "result": 86, "unit": "%"}, {"measurement": "growth at 10 µM", "setting": "[32]", "result": 15, "unit": "%"}, {"measurement": "growth at 100 µM", "setting": "[33]", "result": -15, "unit": "%"}, {"measurement": "growth at 0.1 µM", "setting": "[34]", "result": 92, "unit": "%"}, {"measurement": "growth at 1 µM", "setting": "[35]", "result": 92, "unit": "%"}]}
